Data on 15 compounds can be found in PubChem BioAssay (NCI).

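Where inhibition never reached the appropriate level, the endpoint shown equals the highest concentration tested. Otherwise, values were interpolated linearly from a five-concentration, 48-hour dose response in 96-well plates. TGI: concentration producing complete growth inhibition.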 A value given as a limit tells only on which side of the number the result lay.

Some test systems named below: MCF7 breast; SF-539 CNS; COLO 205 colon; MDA-MB-435; HOP-62 NSCLC; LOX IMVI melanoma; MALME-3M melanoma; T-47D breast; NCI-H460 lung; NCI-H522 lung; BT-549 breast.
What all share (assay): DTP human tumour cell line panel, 48 h

As for `COC(=O)CCC(=O)c1ccc2c(c1)CC1(C2)Cc2ccc3c(c2C1)CCCC3=O` (configuration not stated), the total growth inhibition concentration (TGI) in the test on MCF7 breast was 69.9 µM; in the test on SF-539 CNS, 42.6 µM; in the test with COLO 205 colon, greater than 67.6 µM; in the test on MDA-MB-435 it was 19.9 µM; in the test with HOP-62 NSCLC it was 97.4 µM; with LOX IMVI melanoma, greater than 100 µM. For the same compound, the TGI was greater than 68.1 µM with MALME-3M melanoma, greater than 100 µM in the test on T-47D breast, greater than 100 µM in the test with NCI-H460 lung and greater than 73.5 µM in the test on NCI-H522 lung.

Consider `Cc1nn(C)c2c1C(=O)N(C)CC(=O)N2C`, for which the TGI in the test with MCF7 breast, in the test with SF-539 CNS, with COLO 205 colon, in the test with MDA-MB-435, in the test with HOP-62 NSCLC and with MALME-3M melanoma was greater than 100 µM in each case. Besides, the TGI with BT-549 breast, with NCI-H460 lung and in the test with NCI-H522 lung was greater than 100 µM in each case.

In the case of `Cc1cc(NCCCCCCNc2cc(C)nc3ccc(Cl)cc23)c2cc(Cl)ccc2n1`, the TGI with SF-539 CNS was 29.4 µM; with COLO 205 colon, 32.3 µM; with HOP-62 NSCLC, greater than 100 µM; with LOX IMVI melanoma it was 28.7 µM; in the test with MALME-3M melanoma it was 75.6 µM; in the test on NCI-H460 lung, 29.8 µM. This compound had a TGI with NCI-H522 lung of 30.7 µM.

As for `COc1ccc(-c2nnc(CCCCCCCCc3nnc(-c4ccc(OC)cc4)o3)o2)cc1`, the TGI was greater than 100 µM in the test on MCF7 breast; greater than 100 µM with SF-539 CNS; greater than 100 µM in the test on COLO 205 colon; greater than 100 µM with MDA-MB-435; 74.2 µM in the test with HOP-62 NSCLC; greater than 100 µM in the test with LOX IMVI melanoma. For the same compound, the TGI with MALME-3M melanoma was greater than 100 µM; in the test on BT-549 breast, 59 µM; with NCI-H460 lung, greater than 100 µM; with NCI-H522 lung, greater than 100 µM.

Consider `Cc1nc2c(ncn2CCO)c(=O)[nH]1`, for which the TGI in the test on MCF7 breast, with SF-539 CNS, with COLO 205 colon, with MDA-MB-435, in the test on HOP-62 NSCLC and in the test with LOX IMVI melanoma was greater than 100 µM throughout. In addition, the concentration for total growth inhibition (TGI) with MALME-3M melanoma, with T-47D breast, in the test with NCI-H460 lung and with NCI-H522 lung was greater than 100 µM in each case.

In the case of `CC[C@@]1(O)C(=O)OCc2c1cc1n(c2=O)Cc2c-1nc1ccccc1c2/C=N\NC(=O)C(C)N` (some centres not stated), the TGI with MCF7 breast is greater than 66.9 µM; in the test with SF-539 CNS, less than 0.0282 µM; with COLO 205 colon it was greater than 31.6 µM; with MDA-MB-435 it was greater than 100 µM; with HOP-62 NSCLC, 16 µM; in the test with LOX IMVI melanoma it was 0.229 µM. In addition, the TGI with MALME-3M melanoma is greater than 91.9 µM; in the test on BT-549 breast, greater than 22.4 µM; in the test with NCI-H460 lung it was 4.47 µM; in the test with NCI-H522 lung it was 25.8 µM.

Consider `COc1cc(C=O)c(-c2cc3c(cc2C=O)OCO3)c(OC)c1OC`, for which the TGI with SF-539 CNS was 188 µM; with COLO 205 colon it was greater than 290 µM; in the test on HOP-62 NSCLC, greater than 290 µM; in the test with LOX IMVI melanoma, greater than 290 µM; in the test on MALME-3M melanoma, greater than 290 µM; in the test on NCI-H460 lung, greater than 290 µM. For the same compound, the TGI in the test on NCI-H522 lung is 119 µM.

With `O=C1NN(c2ccccc2)C(=O)C2C3c4ccccc4C(c4ccccc43)C12` (configuration not stated), the TGI in the test with MCF7 breast, with SF-539 CNS, in the test with COLO 205 colon, in the test on MDA-MB-435, in the test with HOP-62 NSCLC and in the test on LOX IMVI melanoma was greater than 100 µM in each case. Further, the TGI with MALME-3M melanoma, with T-47D breast, in the test on NCI-H460 lung and with NCI-H522 lung was greater than 100 µM throughout.

Turning to `CCNc1ncnc2n[nH]nc12`, the TGI with MCF7 breast, in the test on SF-539 CNS, in the test with COLO 205 colon, in the test with MDA-MB-435, with HOP-62 NSCLC and in the test on LOX IMVI melanoma was greater than 100 µM throughout. In addition, the TGI in the test on MALME-3M melanoma, with T-47D breast and in the test on NCI-H522 lung was greater than 100 µM in each case.

Regarding `CCNCCNC(=O)c1ccc(Br)cc1`, the TGI with MCF7 breast, in the test with SF-539 CNS, with LOX IMVI melanoma, with BT-549 breast and in the test with NCI-H460 lung was greater than 100 µM each time.

On to `C/C(=N/N)c1ccc2[nH]c3c(C)cc([N+](=O)[O-])c(C)c3c2c1`, for which the TGI worked out at 29.3 µM with SF-539 CNS; 25.5 µM with COLO 205 colon; 20.9 µM in the test with HOP-62 NSCLC; 19.5 µM with LOX IMVI melanoma; 16.4 µM with MALME-3M melanoma; 72.4 µM in the test with NCI-H460 lung. Moreover, in the test with NCI-H522 lung, the TGI stood at 36.7 µM.

Regarding `OCSc1nn(CO)c(=S)s1`, the TGI with MCF7 breast is 35.9 µM; in the test on SF-539 CNS, 56.8 µM; in the test with COLO 205 colon, 67.8 µM; in the test with MDA-MB-435, 34.3 µM; in the test with HOP-62 NSCLC, 45.2 µM; in the test on LOX IMVI melanoma, 40.7 µM. The TGI turned out to be 44.8 µM with MALME-3M melanoma, 66.6 µM in the test with T-47D breast, 54.5 µM with NCI-H460 lung and 35.3 µM in the test with NCI-H522 lung.

Take `COc1cc2c(cc1O)C(C)Cc1cc3c(cc1N(C)CC2)OCO3` (configuration not stated): the total growth inhibition concentration (TGI) in the test on SF-539 CNS is 8.8 µM; with COLO 205 colon it was greater than 58.8 µM; in the test on HOP-62 NSCLC, 36.8 µM; in the test on LOX IMVI melanoma, 18.1 µM; in the test on MALME-3M melanoma, 20.1 µM; in the test with NCI-H460 lung, 37.7 µM. The TGI in the test on NCI-H522 lung was determined as 4.94 µM.

On to `CCN(CC)c1nc(N(C)C)c2cc(OC)ccc2n1`, for which the TGI in the test on MCF7 breast is greater than 100 µM; in the test with SF-539 CNS it was 55.5 µM; in the test with COLO 205 colon it was 28.2 µM; with MDA-MB-435, greater than 100 µM; with HOP-62 NSCLC, greater than 100 µM; with LOX IMVI melanoma, greater than 100 µM. The TGI with MALME-3M melanoma is 62 µM; with BT-549 breast, greater than 100 µM; with NCI-H460 lung, greater than 100 µM; in the test on NCI-H522 lung it was 66.9 µM.

Turning to `O=C(c1ccccc1)c1c(CNCc2ccccc2)n(C(=O)c2ccccc2)c2ccccc12`, the TGI in the test with SF-539 CNS was greater than 100 µM; with COLO 205 colon, greater than 100 µM; with HOP-62 NSCLC it was greater than 100 µM; with MALME-3M melanoma, greater than 100 µM; in the test with NCI-H460 lung, greater than 100 µM; with NCI-H522 lung it was 81.8 µM.

By TGI is commonly meant the concentration at which net growth stops. Low readings indicate greater sensitivity of the cells, high ones lower sensitivity of the cells.
